The source of these data is ChEMBL document CHEMBL1158307, “Hippospongins AF: New Furanoterpenes from a Southern Australian Marine Sponge Hippospongia sp” (J Nat Prod, 1996).

The test system of the assay is Staphylococcus aureus. The assay can be described thus: Antibacterial activity against Staphylococcus aureus at 200 ug/disk by standard agar plate assay. It counts as functional, organism-based.

Activity calls are given as the source filed them. The calls are words filed in the database; no cut-off is given here.

`CC(CCCc1coc(CC(C)C(=O)O)c1)Cc1cc(CCCc2ccoc2)co1` (stereo unspecified): the outcome was Active.
